Source: PubChem BioAssay AID1963869 (Molecular Pharmacology Branch, DTP, NCI, 2024)

System: KRAS patient-derived spheroids with HUVEC/MSC, viability
Assay: Anticancer human tumor 323965-272-R-J2-PDC patient-derived pancreatic carcinoma cell line growth inhibition [KRAS2]
Settings: for IC50: curve of first compound; for viability, T/C: stronger effect = lower value
In short: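 Combination screen of spheroid viability in tumor-cell co-cultures with endothelial (HUVEC) and mesenchymal stem cell stroma. Each agent was tested in half-log dilutions, topping at clinical Cmax or at 10 microM without a known Cmax.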

[1] = second compound 0.1 µM, first compound 0.0316 µM
[2] = second compound 0.1 µM, first compound 0.1 µM
[3] = second compound 0.316 µM, first compound 0.0316 µM
[4] = second compound 0.316 µM, first compound 0.1 µM
[5] = second compound 1 µM, first compound 0.0316 µM
[6] = second compound 1 µM, first compound 0.1 µM
[7] = second compound 3.16 µM, first compound 0.0316 µM
[8] = second compound 3.16 µM, first compound 0.1 µM
[9] = second compound 10 µM, first compound 0.0316 µM
[10] = second compound 10 µM, first compound 0.1 µM
[11] = second compound 0.1 µM, first compound 0.316 µM
[12] = second compound 0.1 µM, first compound 1 µM
[13] = second compound 0.1 µM, first compound 3.16 µM
[14] = second compound 0.1 µM, first compound 10 µM
[15] = second compound 0.316 µM, first compound 0.316 µM
[16] = second compound 0.316 µM, first compound 1 µM
[17] = second compound 0.316 µM, first compound 3.16 µM
[18] = second compound 0.316 µM, first compound 10 µM
[19] = second compound 1 µM, first compound 0.316 µM
[20] = second compound 1 µM, first compound 1 µM
[21] = second compound 1 µM, first compound 3.16 µM
[22] = second compound 1 µM, first compound 10 µM
[23] = second compound 3.16 µM, first compound 0.316 µM
[24] = second compound 3.16 µM, first compound 1 µM
[25] = second compound 3.16 µM, first compound 3.16 µM
[26] = second compound 3.16 µM, first compound 10 µM
[27] = second compound 10 µM, first compound 0.316 µM
[28] = second compound 10 µM, first compound 1 µM
[29] = second compound 10 µM, first compound 3.16 µM
[30] = second compound 10 µM, first compound 10 µM
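Note: spheroids exposed to agents for 7 days.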
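Throughout, for viability, T/C: 100% = DMSO vehicle control viability.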

| Compound | IC50 (second compound 0.1 µM) [nM] | IC50 (second compound 0.316 µM) [nM] | IC50 (second compound 1 µM) [nM] | IC50 (second compound 3.16 µM) [nM] | IC50 (second compound 10 µM) [nM] | viability, T/C [1] [%] | viability, T/C [2] [%] | viability, T/C [3] [%] | viability, T/C [4] [%] | viability, T/C [5] [%] | viability, T/C [6] [%] | viability, T/C [7] [%] | viability, T/C [8] [%] | viability, T/C [9] [%] | viability, T/C [10] [%] | viability, T/C [11] [%] | viability, T/C [12] [%] | viability, T/C [13] [%] | viability, T/C [14] [%] | viability, T/C [15] [%] | also measured |
| --- | --- | --- | --- | --- | --- | --- | --- | --- | --- | --- | --- | --- | --- | --- | --- | --- | --- | --- | --- | --- | --- |
| CC(C)n1nc(-c2ccc3oc(N)nc3c2)c2c(N)ncnc21 + COc1cc2nc(C)nc(NC(C)c3cc(N)cc(C(F)(F)F)c3)c2cc1OC1CCOC1 | 1.83 | 0.955 | 0.736 | 0.769 | 1.41 | 19 | 14.5 | 17.4 | 15.7 | 16.7 | 14 | 12.9 | 11.8 | 9.07 | 8.86 |  |  |  |  |  | viability, T/C (second compound 0.1 µM, first compound 0.000316 µM): 67.1%; viability, T/C (second compound 0.1 µM, first compound 0.001 µM): 60.1%; viability, T/C (second compound 0.1 µM, first compound 0.00316 µM): 40.8%; viability, T/C (second compound 0.1 µM, first compound 0.01 µM): 26.4%; viability, T/C (second compound 0.316 µM, first compound 0.000316 µM): 64.5%; viability, T/C (second compound 0.316 µM, first compound 0.001 µM): 48.2%; viability, T/C (second compound 0.316 µM, first compound 0.00316 µM): 37.1%; viability, T/C (second compound 0.316 µM, first compound 0.01 µM): 23.8%; viability, T/C (second compound 1 µM, first compound 0.000316 µM): 58.1%; viability, T/C (second compound 1 µM, first compound 0.001 µM): 47.6%; viability, T/C (second compound 1 µM, first compound 0.00316 µM): 33.1%; viability, T/C (second compound 1 µM, first compound 0.01 µM): 24.8%; viability, T/C (second compound 3.16 µM, first compound 0.000316 µM): 54.4%; viability, T/C (second compound 3.16 µM, first compound 0.001 µM): 49.4%; viability, T/C (second compound 3.16 µM, first compound 0.00316 µM): 30.2%; viability, T/C (second compound 3.16 µM, first compound 0.01 µM): 17.7%; viability, T/C (second compound 10 µM, first compound 0.000316 µM): 58.5%; viability, T/C (second compound 10 µM, first compound 0.001 µM): 60.2%; viability, T/C (second compound 10 µM, first compound 0.00316 µM): 32.3%; viability, T/C (second compound 10 µM, first compound 0.01 µM): 18.4% |
| CC1(C)CCC(CN2CCN(c3ccc(C(=O)NS(=O)(=O)c4ccc(NCC5CCOCC5)c([N+](=O)[O-])c4)c(Oc4cnc5[nH]ccc5c4)c3)CC2)=C(c2ccc(Cl)cc2)C1 + COc1cc2nc(C)nc(NC(C)c3cc(N)cc(C(F)(F)F)c3)c2cc1OC1CCOC1 | 1520 | 1570 | 1290 | 1340 | 591 | 76.6 | 80.4 | 67.7 | 77.3 | 76.2 | 84.2 | 87.4 | 80.6 | 80.7 | 79.9 | 67.8 | 72.2 | 11.2 | 2.78 | 75.2 | viability, T/C [16]: 71.5%; viability, T/C [17]: 16.8%; viability, T/C [18]: 3.87%; viability, T/C [19]: 84.3%; viability, T/C [20]: 60.3%; viability, T/C [21]: 12.5%; viability, T/C [22]: 2.67%; viability, T/C [23]: 84.7%; viability, T/C [24]: 65.1%; viability, T/C [25]: 6.04%; viability, T/C [26]: 2.28%; viability, T/C [27]: 61.1%; viability, T/C [28]: 41.6%; viability, T/C [29]: 3.41%; viability, T/C [30]: 1.41% |
| COc1cc(Nc2ncc3c(n2)-c2ccc(Cl)cc2C(c2c(F)cccc2OC)=NC3)ccc1C(=O)O + COc1cc2nc(C)nc(NC(C)c3cc(N)cc(C(F)(F)F)c3)c2cc1OC1CCOC1 | 92.4 | 73.5 | < 31.6 | < 31.6 | < 31.6 | 76.5 | 47.3 | 66.2 | 45.3 | 62.2 | 39.6 | 56.8 | 34.4 | 63.4 | 20.3 | 35.6 | 44.1 | 53.4 | 59.1 | 35.7 | viability, T/C [16]: 37.5%; viability, T/C [17]: 51.5%; viability, T/C [18]: 58.5%; viability, T/C [19]: 33%; viability, T/C [20]: 38.8%; viability, T/C [21]: 44.9%; viability, T/C [22]: 51.2%; viability, T/C [23]: 28.4%; viability, T/C [24]: 37.8%; viability, T/C [25]: 44.3%; viability, T/C [26]: 51.1%; viability, T/C [27]: 24%; viability, T/C [28]: 41.6%; viability, T/C [29]: 42.8%; viability, T/C [30]: 36.9% |
| COc1cc2nccc(Oc3ccc(NC(=O)C4(C(=O)Nc5ccc(F)cc5)CC4)cc3)c2cc1OC + COc1cc2nc(C)nc(NC(C)c3cc(N)cc(C(F)(F)F)c3)c2cc1OC1CCOC1 | > 10000 | > 10000 | > 10000 | 9980 | 3890 | 86.5 | 86.5 | 76 | 85.7 | 84.4 | 79.8 | 87.1 | 85.3 | 85.4 | 93.6 | 84.1 | 86.5 | 75.7 | 86.2 | 88 | viability, T/C [16]: 82.2%; viability, T/C [17]: 84.7%; viability, T/C [18]: 75.2%; viability, T/C [19]: 84.5%; viability, T/C [20]: 82.8%; viability, T/C [21]: 74.1%; viability, T/C [22]: 66.3%; viability, T/C [23]: 95.3%; viability, T/C [24]: 89.6%; viability, T/C [25]: 79%; viability, T/C [26]: 49.5%; viability, T/C [27]: 84.9%; viability, T/C [28]: 84.3%; viability, T/C [29]: 59.1%; viability, T/C [30]: 7.87% |
